# From patent US10918645B2 (LIFEARC, priority 2016, dated 2021)
# Key:
# Assay type in all cases: biochemical
# SmMLCK = SmMLCK (Homo sapiens (Human), UniProt Q15746); experiment: SmMLCK kinase selectivity assay; conditions: 1 μM inhibitor concentration
# Protocol: 5-20 mU of smMLCK (diluted in 50 mM Hepes (pH 7.5), 0.1 mM EGTA, 1 mg/ml BSA, 0.1%, b-Mercaptoethanol) is assayed against substrate peptide ([…]) in a final volume of 25.5 μl containing 50 mM Hepes (pH 7.5), 0.1 mM EGTA, 5 mM CaCl2, […] Calmodulin, 300 μM substrate peptide, 10 mM magnesium acetate and 0.05 mM [33P-g-ATP](500-1000 cpm/pmole) and incubated for 30 mins at room temperature. Assays are stopped by addition of 5 μl of 0.5M (3%) orthophosphoric acid. Assays are harvested onto P81 Unifilter plates using a wash buffer of 50 mM orthophosphoric acid.
# LRRK2 G2019S = LRRK2 G2019S (Homo sapiens (Human), UniProt Q5S007, G2019S); experiment: Adapta Kinase Assay (LRRK2_IC50 assay); conditions: inhibition of LRRK2 G2019S
# Protocol: In Adapta™ Kinase Assay (LRRK2_IC50 assay): the Kinase Reaction Buffer contained 5× Kinase Buffer S (Life Technologies, PV5213) and 2 mM DTT (Life Technologies, P2325).
# The Adapta® universal kinase assay is a homogenous, fluorescent based immunoassay for the detection of ADP. In contrast to ATP depletion assays, the Adapta® assay is extremely sensitive to ADP formation such that a majority of the signal change occurs in the first 10-20% conversion of ATP to ADP. This makes the Adapta® universal kinase assay ideally suited for use with low activity kinases.
# Prepare a 1× solution of kinase reaction buffer from the 5× Kinase Buffer S stock (listed above) by adding 2 ml of 5× stock to 8 ml of H2O to make 10 ml of 1× kinase reaction buffer. To this, add 20 μl of 1 M DTT.
# Kinase reactions are performed in a 10 μl volume in low-volume 384-well plates. […] Other non—treated assay plates, while not tested, may also be suitable. The concentration of substrate in the assay is 100 μM, and the 1× kinase reaction buffer consists of 50 mM Tris-HCl pH8.5, 10 mM MgCl2, 1 mM EGTA, 0.01% Brij-35, and 2 mM DTT, plus any additional additives that may be required for a specific kinase. […] The plate is allowed to equilibrate at room temperature for at least 30 minutes before being read on a plate reader configured for Adapta™ TR-FRET.
# The data presented in this document were generated using a BMG LABTECH PHERAstar plate reader using the appropriate filters and instrument settings for Adapta™. The Test Compounds are screened in 1% DMSO (final) in the well. For 8 point titrations, 5-fold serial dilutions are conducted from the starting concentration.
# IC50 estimates were obtained using the software XLfit (IDBS Inc.).
# IKKe = IKKe (Homo sapiens (Human), UniProt Q14164); experiment: IKKe kinase selectivity assay; conditions: 1 μM inhibitor concentration
# Protocol: 5-20 mU of IKKepsilon (DU14231)(diluted in 50 mM Tris (pH 7.5), 0.1 mM EGTA, 1 mg/ml BSA) is assayed against MBP in a final volume of 25.5 μl containing 50 mM Tris (pH 7.5), 0.1 mM EGTA, 0.33 mg/ml MBP, 10 mM magnesium acetate and 0.05 mM [33P-g-ATP](500-1000 cpm/pmole) and incubated for 30 mins at room temperature. Assays are stopped by addition of 5 μl of 0.5M (3%) orthophosphoric acid. Assays are harvested onto P81 Unifilter plates using a wash buffer of 50 mM orthophosphoric acid.
# CHK1 = CHK1 (Homo sapiens (Human), UniProt O14757); experiment: CHK1 kinase selectivity assay; conditions: 1 μM inhibitor concentration
# Protocol: CHK1 (5-20 mU diluted in 20 mM MOPS pH 7.5, 1 mM EDTA, 0.1% b-mercaptoethanol, 0.01% Brij-35, 5% glycerol, 1 mg/ml BSA) is assayed against CHKtide substrate peptide ([…]) in a final volume of 25.5 μl containing 8 mM MOPS pH 7.0, 0.2 mM EDTA, 200 μM CHKtide, 10 mM magnesium acetate and 0.02 mM [33P-g-ATP](50-1000 cpm/pmole) and incubated for 30 min at room temperature Assays are stopped by addition of 5 μl of 0.5 M (3%) orthophosphoric acid and then harvested onto P81 Unifilter plates with a wash buffer of 50 mM orthophosphoric acid.
# S6K1 = S6K1 (Homo sapiens (Human), UniProt P23443); experiment: S6K1 kinase selectivity assay; conditions: 1 μM inhibitor concentration
# Protocol: S6K1/P70 S6K (5-20 mU diluted in 20 mM MOPS pH 7.5, 1 mM EDTA, 0.01% Brij35, 5% glycerol, 0.1% b-mercaptoethanol, 1 mg/ml BSA) is assayed against substrate peptide ([…]) in a final volume of 25.5 μl containing 8 mM MOPS pH 7.0, 0.2 mM EDTA, 0.1 mM substrate peptide, 10 mM magnesium acetate and 0.02 mM [33P-g-ATP] (50-1000 cpm/pmole) and incubated for 30 min at room temperature. Assays are stopped by addition of 5 μl of 0.5 M (3%) orthophosphoric acid and then harvested onto P81 Unifilter plates with a wash buffer of 50 mM orthophosphoric acid.
# Chain of CHK1 (O14757 whole entry, species assumed): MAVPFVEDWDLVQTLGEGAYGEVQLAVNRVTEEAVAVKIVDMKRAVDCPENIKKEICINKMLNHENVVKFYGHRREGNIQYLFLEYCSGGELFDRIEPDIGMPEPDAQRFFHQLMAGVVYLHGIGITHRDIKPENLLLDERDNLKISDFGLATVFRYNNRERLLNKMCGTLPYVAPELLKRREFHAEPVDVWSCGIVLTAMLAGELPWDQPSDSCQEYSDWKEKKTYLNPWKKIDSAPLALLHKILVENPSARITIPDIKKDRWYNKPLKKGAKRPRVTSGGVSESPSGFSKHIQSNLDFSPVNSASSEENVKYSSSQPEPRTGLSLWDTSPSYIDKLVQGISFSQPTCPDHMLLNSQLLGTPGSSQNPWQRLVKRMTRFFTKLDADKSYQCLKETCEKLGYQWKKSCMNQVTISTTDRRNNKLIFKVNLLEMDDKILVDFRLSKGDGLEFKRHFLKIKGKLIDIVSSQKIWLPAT
# Chain of IKKe (Q14164 whole entry, species assumed): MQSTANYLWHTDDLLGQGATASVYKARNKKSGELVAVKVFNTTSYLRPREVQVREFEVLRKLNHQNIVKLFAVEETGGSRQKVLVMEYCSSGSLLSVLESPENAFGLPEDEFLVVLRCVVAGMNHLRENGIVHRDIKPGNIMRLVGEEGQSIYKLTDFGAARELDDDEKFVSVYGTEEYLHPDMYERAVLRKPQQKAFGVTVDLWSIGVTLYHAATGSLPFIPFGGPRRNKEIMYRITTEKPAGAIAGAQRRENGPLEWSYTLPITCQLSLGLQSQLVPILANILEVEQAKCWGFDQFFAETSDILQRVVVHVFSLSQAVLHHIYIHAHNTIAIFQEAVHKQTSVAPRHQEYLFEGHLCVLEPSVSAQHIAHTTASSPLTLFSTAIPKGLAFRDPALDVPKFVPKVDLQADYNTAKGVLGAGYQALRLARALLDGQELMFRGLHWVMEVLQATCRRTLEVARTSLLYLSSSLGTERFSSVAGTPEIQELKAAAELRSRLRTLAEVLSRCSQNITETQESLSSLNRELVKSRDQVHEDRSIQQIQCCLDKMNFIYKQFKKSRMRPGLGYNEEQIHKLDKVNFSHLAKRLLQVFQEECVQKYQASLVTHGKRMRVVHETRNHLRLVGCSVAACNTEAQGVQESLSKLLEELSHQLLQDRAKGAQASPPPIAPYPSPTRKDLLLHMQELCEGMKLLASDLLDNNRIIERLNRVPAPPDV
# Chain of S6K1 (P23443 whole entry, species assumed): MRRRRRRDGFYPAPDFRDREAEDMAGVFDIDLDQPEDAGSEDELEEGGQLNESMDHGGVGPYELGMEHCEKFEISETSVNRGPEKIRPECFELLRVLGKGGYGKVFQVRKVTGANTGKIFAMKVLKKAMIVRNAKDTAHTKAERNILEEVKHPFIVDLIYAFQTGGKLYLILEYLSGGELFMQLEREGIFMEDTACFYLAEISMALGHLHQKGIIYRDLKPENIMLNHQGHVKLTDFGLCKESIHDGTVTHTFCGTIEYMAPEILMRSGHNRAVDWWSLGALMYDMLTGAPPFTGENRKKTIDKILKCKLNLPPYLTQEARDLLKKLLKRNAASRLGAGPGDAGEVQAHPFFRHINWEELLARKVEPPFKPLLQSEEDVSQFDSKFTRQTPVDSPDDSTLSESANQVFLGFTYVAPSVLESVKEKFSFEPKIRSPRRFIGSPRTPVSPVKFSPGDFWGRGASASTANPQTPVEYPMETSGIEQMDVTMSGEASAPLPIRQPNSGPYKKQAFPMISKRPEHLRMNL
# Chain of LRRK2 G2019S (Q5S007 970-2527 G2019S): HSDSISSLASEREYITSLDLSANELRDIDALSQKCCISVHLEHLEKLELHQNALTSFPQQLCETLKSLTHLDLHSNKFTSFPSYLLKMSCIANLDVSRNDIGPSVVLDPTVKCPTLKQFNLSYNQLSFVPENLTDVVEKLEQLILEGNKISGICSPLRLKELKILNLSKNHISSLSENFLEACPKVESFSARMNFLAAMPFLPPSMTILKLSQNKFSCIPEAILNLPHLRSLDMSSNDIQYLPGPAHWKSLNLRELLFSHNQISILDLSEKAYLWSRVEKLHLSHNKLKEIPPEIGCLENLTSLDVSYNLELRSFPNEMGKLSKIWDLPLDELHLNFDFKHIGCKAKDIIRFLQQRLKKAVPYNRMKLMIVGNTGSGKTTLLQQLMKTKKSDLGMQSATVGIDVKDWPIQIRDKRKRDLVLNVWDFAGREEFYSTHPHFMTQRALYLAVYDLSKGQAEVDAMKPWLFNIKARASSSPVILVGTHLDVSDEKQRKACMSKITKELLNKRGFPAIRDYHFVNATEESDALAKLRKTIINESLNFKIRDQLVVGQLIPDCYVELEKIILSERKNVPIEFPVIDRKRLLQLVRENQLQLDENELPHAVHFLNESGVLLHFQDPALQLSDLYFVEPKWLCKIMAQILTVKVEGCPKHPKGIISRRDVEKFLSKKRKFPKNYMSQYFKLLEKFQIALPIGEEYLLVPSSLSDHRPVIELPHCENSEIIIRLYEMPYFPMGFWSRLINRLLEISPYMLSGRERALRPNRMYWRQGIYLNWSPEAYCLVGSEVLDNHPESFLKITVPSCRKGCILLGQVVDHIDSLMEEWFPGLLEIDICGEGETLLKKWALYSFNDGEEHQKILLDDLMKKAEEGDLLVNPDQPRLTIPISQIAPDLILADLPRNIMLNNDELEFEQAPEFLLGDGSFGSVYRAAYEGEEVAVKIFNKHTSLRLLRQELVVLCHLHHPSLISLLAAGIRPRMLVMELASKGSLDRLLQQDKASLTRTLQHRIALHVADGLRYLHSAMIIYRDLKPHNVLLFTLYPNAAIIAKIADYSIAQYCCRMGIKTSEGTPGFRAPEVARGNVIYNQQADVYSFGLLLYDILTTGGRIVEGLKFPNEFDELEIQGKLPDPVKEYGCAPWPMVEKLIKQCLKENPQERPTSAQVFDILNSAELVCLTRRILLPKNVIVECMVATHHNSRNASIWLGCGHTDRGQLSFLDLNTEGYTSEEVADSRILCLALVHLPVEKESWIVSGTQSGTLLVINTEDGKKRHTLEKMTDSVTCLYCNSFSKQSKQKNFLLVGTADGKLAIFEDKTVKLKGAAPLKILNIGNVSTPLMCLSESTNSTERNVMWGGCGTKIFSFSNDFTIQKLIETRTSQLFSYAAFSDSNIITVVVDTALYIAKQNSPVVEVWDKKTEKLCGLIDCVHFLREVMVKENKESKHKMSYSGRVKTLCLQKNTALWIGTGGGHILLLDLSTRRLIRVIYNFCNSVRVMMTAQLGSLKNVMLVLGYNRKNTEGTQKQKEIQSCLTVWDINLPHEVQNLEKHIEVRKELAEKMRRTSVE
structure (smiles),measurement,setting,value
"c1cc2[nH]nc3c2c(n1)N(C1CCOCC1)CCC3 [Example 29, 6-(tetrahydro-2H-pyran-4-yl)-6,7,8,9-tetrahydro-2H-1,2,5,6-tetraazabenzo[cd]azulene]",percentage inhibition of SmMLCK,SmMLCK,11 percentage
same,IC50,LRRK2 G2019S,150 nM
same,percentage inhibition of IKKe,IKKe,9 percentage
same,percentage inhibition of CHK1,CHK1,0 percentage
same,percentage inhibition of S6K1,S6K1,2 percentage
"c1cc2[nH]nc3c2c(n1)N(C1CCC1)CCC3 [Example 22, 6-cyclobutyl-6,7,8,9-tetrahydro-2H-1,2,5,6-tetraazabenzo[cd]azulene]",percentage inhibition of SmMLCK,SmMLCK,16 percentage
same,percentage inhibition of IKKe,IKKe,0 percentage
same,percentage inhibition of CHK1,CHK1,2 percentage
same,percentage inhibition of S6K1,S6K1,0 percentage
CN1CCC(N2Cc3ccccc3-c3n[nH]c4ccnc2c34)CC1 [Example 55],percentage inhibition of SmMLCK,SmMLCK,16 percentage
same,IC50,LRRK2 G2019S,50 nM
same,percentage inhibition of IKKe,IKKe,5 percentage
same,percentage inhibition of CHK1,CHK1,42 percentage
same,percentage inhibition of S6K1,S6K1,17 percentage
CC(C)n1ncc2c1CN(C1CCN(C)CC1)c1nccc3[nH]nc-2c13 [Example 68],percentage inhibition of SmMLCK,SmMLCK,9 percentage
same,percentage inhibition of IKKe,IKKe,0 percentage
same,percentage inhibition of CHK1,CHK1,28 percentage
same,percentage inhibition of S6K1,S6K1,0 percentage
"c1cc2[nH]nc3c2c(n1)N(C1CCCC1)CCC3 [Example 23, 6-cyclopentyl-6,7,8,9-tetrahydro-2H-1,2,5,6-tetraazabenzo[cd]azulene]",percentage inhibition of SmMLCK,SmMLCK,15 percentage
same,percentage inhibition of IKKe,IKKe,0 percentage
same,percentage inhibition of CHK1,CHK1,0 percentage
same,percentage inhibition of S6K1,S6K1,0 percentage
